# Molecular target: T1, GID4 (Uniprot ID: Q81VV7, residues 124-289) (Homo sapiens, UniProt Q8IVV7)
# T1 construct: GID4 (Uniprot ID: Q81VV7, residues 124-289)
# T1 sequence (Q8IVV7 124-289): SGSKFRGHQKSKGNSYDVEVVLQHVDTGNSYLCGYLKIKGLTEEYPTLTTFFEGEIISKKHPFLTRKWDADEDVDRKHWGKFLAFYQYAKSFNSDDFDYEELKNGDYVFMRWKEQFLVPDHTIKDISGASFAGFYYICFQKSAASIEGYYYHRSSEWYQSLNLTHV
# Experiment: GID4 competitive binding assay (AlphaScreen, GID4/degron peptide PGLW)
# Settings: 24 nM GID4, 48 nM biotinylated degron peptide PGLW, 4° C., read-out: IC50 (Inhibition of GID4/Degron binding by test compounds)
# Summary of the method: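 His-tagged human GID4 (residues 124-289, 24 nM) pre-incubated 2 h at 4 °C with 48 nM biotinylated PGLW peptide and compound in HEPES pH 7.5 buffer, 2% DMSO (final). AlphaScreen streptavidin donor/Ni-NTA acceptor beads added for 1 h; IC50 from nonlinear fit of % inhibition versus DMSO.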
row,Compound,IC50 [µM]
1,"Nc1nc(NC2CC2)cc(N2CCO[C@H](c3ccccc3Br)C2)n1 (stereo in doubt) [Compound 97, (R/S)-6-(2-(2-bromophenyl)morpholino)-N4-cyclopropylpyrimidine-2,4-diamine]",> 5
2,"Nc1nc(NC2CC2)cc(N2CCNC(c3ccccc3Br)C2)n1 (single isomer, unassigned) [Compound 121, (R/S)-6-(3-(2-bromophenyl)piperazin-1-yl)-N4-cyclopropylpyrimidine-2,4-diamine]",> 5
3,"CC(C)c1nc(N)cc(N2CCCC(c3cnc4ccccn34)C2)n1 (single isomer, unassigned) [Compound 141, R or S-6-(3-(imidazo[1,2-a]pyridin-3-yl)piperidin-1-yl)-2-isopropylpyrimidin-4-amine]",< 0.5
4,"CN1CCN(c2ccc(Br)c(C3CN(c4cc(N)nc(N)n4)CCN3)c2)CC1 (single isomer, unassigned) [Compound 51, R or S 6-(3-(2-bromo-5-(4-methylpiperazin-1-yl)phenyl)piperazin-1-yl)pyrimidine-2,4-diamine]",0.5 to 5
5,"CCc1cc(N2CCNC(c3cnc4ccccn34)C2)nc(N)n1 (single isomer, unassigned) [Compound 28, (S/R)-4-ethyl-6-(3-(imidazo[1,2-a]pyridin-3-yl)piperazin-1-yl)pyrimidin-2-amine]",< 0.5
6,"CC(C)c1cc(N2CCCC(c3cnc4ccncn34)C2)nc(N)n1 (stereo not drawn) [Compound 239, 4-(3-(imidazo[1,2-c]pyrimidin-3-yl)piperidin-1-yl)-6-isopropylpyrimidin-2-amine]",0.5 to 5
7,"CC(C)c1cc(N2CCCNC(c3ccccc3Br)C2)nc(N)n1 (stereo not drawn) [Compound 220, 4-(3-(2-bromophenyl)-1,4-diazepan-1-yl)-6-isopropylpyrimidin-2-amine]",0.5 to 5
8,"Nc1cc(N2CCNC(c3cnc4ccccn34)C2)nc(N)n1 (racemic) [Compound 120, (R/S)-6-(3-(imidazo[1,2-a]pyridin-3-yl)piperazin-1-yl)pyrimidine-2,4-diamine]",0.5 to 5
9,"CC(C)c1cc(N2CCCC(c3cnc4ccccn34)C2)ncn1 (single isomer, unassigned) [Compound 149, (S/R)-3-(1-(6-isopropylpyrimidin-4-yl)piperidin-3-yl)imidazo[1,2-a]pyridine]",> 5
10,"Nc1nc(C2CC2)cc(N2CCNC(c3cnc4ccccn34)C2)n1 (single isomer, unassigned) [Compound 104, (R/S)-4-cyclopropyl-6-(3-(imidazo[1,2-a]pyridin-3-yl)piperazin-1-yl)pyrimidin-2-amine]",> 5
11,"Nc1nc2c(c(N3CCNC(c4ccccc4Br)C3)n1)COCC2 (stereo not drawn) [Compound 184, 4-(3-(2-bromophenyl)piperazin-1-yl)-7,8-dihydro-5H-pyrano[4,3-d]pyrimidin-2-amine]",0.5 to 5
12,"Cn1nccc1C1CCCN(c2nc(N)nc3c2CCC3)C1 (stereo not drawn) [Compound 215, 4-(3-(1 methyl-1H-pyrazol-5-yl)piperidin-1-yl)-6,7-dihydro-5H-cyclopenta[d]pyrimidin-2-amine]",> 5
13,"CC(C)c1cc(N2CCCC(c3nc4ccccc4[nH]3)C2)nc(N)n1 (stereo not drawn) [Compound 181, 4-(3-(1H-benzo[d]imidazol-2-yl)piperidin-1-yl)-6-isopropylpyrimidin-2-amine]",> 5
14,"CC(C)c1cc(N2CCN(C)C(c3cnc4ccccn34)C2)nc(N)n1 (single isomer, unassigned) [Compound 105, (S/R)-4-(3-(imidazo[1,2-a]pyridin-3-yl)-4-methylpiperazin-1-yl)-6-isopropylpyrimidin-2-amine]",> 5
15,"Nc1nc2c(c(N3CCCC(c4cnc5ccccn45)C3)n1)CSC2 (stereo not drawn) [Compound 186, 4-(3-(imidazo[1,2-a]pyridin-3-yl)piperidin-1-yl)-5,7-dihydrothieno[3,4-d]pyrimidin-2-amine]",> 5
16,"CC(C)c1cc(N2CCC=C(c3ncn4ccccc34)C2)nc(N)n1 [Compound 238, 4-(5-(imidazo[1,5-a]pyridin-1-yl)-3,6-dihydropyridin-1(2H)-yl)-6-isopropylpyrimidin-2-amine]",0.5 to 5
17,"CNc1nc(N)cc(N2CCCC(c3cnc4ccccn34)C2)n1 (racemic) [Compound 118, (R/S)-6-(3-(imidazo[1,2-a]pyridin-3-yl)piperidin-1-yl)-N2-methylpyrimidine-2,4-diamine]",0.5 to 5
18,"CC(C)c1cc(N2CCCC(c3nnc4ccccn34)C2)nc(N)n1 (stereo not drawn) [Compound 194, 4-(3-([1,2,4]triazolo[4,3-a]pyridin-3-yl)piperidin-1-yl)-6-isopropylpyrimidin-2-amine]",0.5 to 5

# Now from value to compound:
row,IC50 [µM],Compound
1,0.5 to 5,"CNc1nc(N)cc(N2CCNC(c3ccccc3Br)C2)n1 (single isomer, unassigned) [Compound 113, (R/S)-6-(3-(2-bromophenyl)piperazin-1-yl)-N2-methylpyrimidine-2,4-diamine]"
2,< 0.5,"CN1CCC(CNC(=O)c2ccc(-c3cc(O)c4ncccc4c3)cc2)CC1 [Compound 300, 4-(8-hydroxyquinolin-6-yl)-N-((1-methylpiperidin-4-yl)methyl)benzamide]"
3,0.5 to 5,"CC(C)c1cc(N2CCNC(c3cc(C(=O)N4CCN(C)CC4)ccc3Br)C2)nc(N)n1 (single isomer, unassigned) [Compound 18, (S/R)-(3-(4-(2-amino-6-isopropylpyrimidin-4-yl)piperazin-2-yl)-4-bromophenyl)(4-methylpiperazin-1-yl)methanone]"
4,> 5,"Nc1cc(N2CCCC(n3ncc4ccccc43)C2)nc(N)n1 (stereo not drawn) [Compound 89, 6-(3-(1H-indazol-1-yl)piperidin-1-yl)pyrimidine-2,4-diamine]"
5,< 0.5,"CN(C)C1CCN(C(=O)c2n[nH]c3ccc(-c4ccc5ccnc(N)c5c4)cc23)CC1 [Compound 335, (5-(1-aminoisoquinolin-7-yl)-1H-indazol-3-yl)(4-(dimethylamino)piperidin-1-yl)methanone]"
6,0.5 to 5,"CN(C)CCCNC(=O)c1ccc(-c2cc(O)c3ncccc3n2)cc1 [Compound 304, N-(3-(dimethylamino)propyl)-4-(4-hydroxy-1,5-naphthyridin-2-yl)benzamide]"
7,0.5 to 5,"Brc1ccccc1C1CN(c2ccnc3[nH]cnc23)CCN1 (single isomer, unassigned) [Compound 35, (R/S)-7-(3-(2-bromophenyl)piperazin-1-yl)-3H-imidazo[4,5-b]pyridine]"
8,0.5 to 5,"Nc1nc(N2CCOC(c3ccccc3Br)C2)c2[nH]ccc2n1 (single isomer, unassigned) [Compound 46, (R/S)-4-(2-(2-bromophenyl)morpholino)-5H-pyrrolo[3,2-d]pyrimidin-2-amine]"
9,> 5,"Nc1nccc2ccc(N3CCC(C(=O)N4CCCC4)C3)cc12 (stereo not drawn) [Compound 354, (1-(1-aminoisoquinolin-7-yl)pyrrolidin-3-yl)(pyrrolidin-1-yl)methanone]"
10,0.5 to 5,"CN(C)CCCNC(=O)c1ccc(-c2cc(O)c3ncccc3c2)c(F)c1Cl [Compound 310, 2-chloro-N-(3-(dimethylamino)propyl)-3-fluoro-4-(8-hydroxyquinolin-6-yl)benzamide]"
11,> 5,"Brc1ccccc1[C@H]1CN(c2ccnc3[nH]cnc23)CCN1 (racemic) [Compound 34, (S/R)-7-(3-(2-bromophenyl)piperazin-1-yl)-3H-imidazo[4,5-b]pyridine]"
12,0.5 to 5,"CC(C)c1cc(N2CCCC(c3nn(C)c4ccccc34)C2)nc(N)n1 (stereo not drawn) [Compound 232, 4-isopropyl-6-(3-(1-methyl-1H-indazol-3-yl)piperidin-1-yl)pyrimidin-2-amine]"
13,0.5 to 5,"CC(C)c1cc(N2C=C(c3ccccc3Br)CCC2)nc(N)n1 [Compound 227, 4-(5-(2-bromophenyl)-3,4-dihydropyridin-1(2H)-yl)-6-isopropylpyrimidin-2-amine]"
14,> 5,"Nc1nc(N2CCCC(c3ccn[nH]3)C2)c2ccccc2n1 (stereo not drawn) [Compound 213, 4-(3-(1H-pyrazol-5-yl)piperidin-1-yl)quinazolin-2-amine]"
15,0.5 to 5,"CNc1nc(N)cc(N2CCCC(c3ccccc3Br)C2)n1 (stereo not drawn) [Compound 85, 6-(3-(2-bromophenyl)piperidin-1-yl)-N^2-methylpyrimidine-2,4-diamine]"
16,< 0.5,"CN(C)CCCNC(=O)c1cc(-c2cc(O)c3ncccc3c2)co1 [Compound 283, N-(3-(dimethylamino)propyl)-4-(8-hydroxyquinolin-6-yl)furan-2-carboxamide]"
17,0.5 to 5,"CCOc1ccc(Br)c(C2CN(c3cc(C(C)C)nc(N)n3)CCN2)c1 (single isomer, unassigned) [Compound 26, (S/R)-4-(3-(2-bromo-5-ethoxyphenyl)piperazin-1-yl)-6-isopropylpyrimidin-2-amine]"
18,0.5 to 5,"CC(C)c1cc(N2CC[C@H](O)[C@@H](c3ccccc3Br)C2)nc(N)n1 (relative stereo) [Compound 223, (3,4-trans)-1-(2-amino-6-isopropylpyrimidin-4-yl)-3-(2-bromophenyl)piperidin-4-ol]"
19,> 5,"CN1CC(CNC(=O)c2cccc(-c3ccc4ccnc(N)c4c3)c2)C1 [Compound 347, 3-(1-aminoisoquinolin-7-yl)-N-((1-methylazetidin-3-yl)methyl)benzamide]"
20,< 0.5,"CN1CCN(c2cc(NCC3CC3)nc(N)n2)CC1c1ccccc1Br (single isomer, unassigned) [Compound 99, (R/S)-6-(3-(2-bromophenyl)-4-methylpiperazin-1-yl)-N4-(cyclopropylmethyl)pyrimidine-2,4-diamine]"
21,< 0.5,"CC(C)c1cc(N2CCNC(c3ccc(O)cc3Br)C2)nc(N)n1 (stereo not drawn) [Compound 164, 4-(4-(2-amino-6-isopropylpyrimidin-4-yl)piperazin-2-yl)-3-bromophenol]"

# Reference: patent US20240132464A1, “HETEROCYCLIC COMPOUNDS AS E3 LIGASE INHIBITORS” (Accutar Biotechnology Inc., priority 2022, published 2024)
